Reference: patent US20220257764A1, “USE OF DIKETONE COMPOUND IN PHOTODYNAMIC THERAPY OR DIAGNOSIS” (BEIJING WHOLESOMETECH CO., LTD., priority 2019, published 2022)
Read-outs that look alike come from different tables or passages of the source.

Key:
[1] = test system: Escherichia coli; assay: Inhibitory effect on bacteria (colony counting), under light and in the dark; assay type: cell-based; settings: 60 mM
Method: A single Escherichia coli colony was transferred from a solid Luria Bertani (LB) agar plate to 5 ml liquid LB medium and incubated at 37° C. for 12 h. Bacteria were collected by centrifugation (7000 rpm, 1 min) and washed with PBS buffer three times. The supernatant was discarded, and the remaining Escherichia coli cells were resuspended in the PBS buffer. The bacterial suspension was adjusted to make its optical density (OD600) to 1.0. The suspension was then diluted (5 times) with PBS buffer. The diluted Escherichia coli cell suspension was incubated in the dark at 37° C. for 15 min in the presence of a photosensitizer (diketone compound) solution with a concentration of 60 mM, and then irradiated for 200 s under a 15 mW/cm^2 laser light (with a wavelength of 450 nm to 480 nm and in the final light dose of about 3 J cm^2), and after the irradiation the bacterial suspension was serially diluted (10^4 times) with PBS buffer. 100 μL of the diluted bacterial Escherichia coli cell was dispersed on a solid LB agar plate and incubated at 37° C. for 12 h to 16 h, and colonies formed were counted. In the meanwhile, a treated group in the dark and an untreated group in the dark were set; the inhibition rate was determined by dividing the number of colony forming units (cfu) killed in the treated group under light or the treated group in the dark by the number of colony forming units (cfu) killed in the untreated group in the dark.

[2] = test system: 4T1 cells (breast cancer cells in mice); assay: Photodynamic therapy of tumors in mice (tumor size, tumor weight, B cells in tumor tissue); assay type: in vivo, BALB/C mice; settings: 14 days after treatment
Method: 1. Photodynamic therapy experiments on tumors were carried out by using BJMU-204 as a photosensitizer and BALB/C mice as experimental animals. Modeling mode: BALB/C mice were divided into 5 groups in total, 11-12 mice in each group. 4T1 cells (breast cancer cells in mice) were resuscitated and subcultured to a better cell state for tumorigenesis inoculation. BALB/C mice were locally depilated and disinfected, and tumor cells were injected into the mouse mammary fat pad in situ. Tumors were formed within 7 to 10 days. […] [table] 2. Mice in each experimental group were subjected to blood collection for serum separation and necropsy, and tumors were taken out and measured to obtain their wet weights; tumor tissues were fixed, pathological examinations were performed, and H. E. staining was used to observe the changes of tumors of the mice under an optical microscope; blood routine indicators (including white blood cell count (WBC), red blood cell count (RBC), lymphocyte count (LY), platelet count (PLT) and many other blood routine indicators) and blood biochemical indicators (including routine blood biochemical indicators) were tested and analyzed in the Laboratory of Peking University Third Hospital. 3. Tumors were taken out of mice in each experimental group, a piece of tumor tissue about 1 cm*1 cm*0.5 cm in size was cut up and placed in a 10 ml EP tube. 5 ml of pancreatin was added for digestion. 30 min later, the digestion was ended. The digestion solution and the tumor tissue were sieved through a single cell sieve to obtain a tumor tissue single-cell suspension. B220 antibody (for flow cytometry) was added to the suspension and the resulting solution was stained with a PI staining solution; 30 min later, the staining was ended and the staining solution was removed; next, re-suspending was carried out with a PBS solution for test with a flow cytometry.

[3] = test system: B16 melanoma cell; assay: MTT toxicity to tumor cells, under light and in the dark; assay type: cell-based; settings: Mus musculus, under light, 450-480 nm laser, 110 mW/cm^2, 900 s
Method: (§1) In this experimental example, the toxicity of the compound to tumor cells was tested by an MTT method including the following specific steps.
(§2) (1) Logarithmic cells were collected, the concentration of a cell suspension was adjusted, the cell suspension was added to a cell culture plate in a dose of 100 μL per well, and the cells were then added to a cell culture plate so that the density of the cells to be tested was adjusted to 1000-10000 wells (edge wells were filled with sterile PBS).
(§3) (2) The cells were incubated at 37° C. in the presence of 5% CO2 until the cells in a single layer covered the bottom of each well (96-well flat-bottom plate), and a drug in concentration gradients was added. Generally, the drug in 5 to 7 gradients was added in a dose of 100 μL per well, and 3 to 5 multi-wells were set.
(§4) (3) The cells were randomly divided into treated groups under light and treated groups in the dark, incubated at 37° C. in the presence of 5% CO2 for 16 h to 48 h, and observed with an inverted microscope.
(§5) (4) The cells were irradiated for 900 s with a laser having a wavelength of 450 nm to 480 nm (at an intensity of 110 mW/cm^2), and the final light dose was about 100 J/cm^2. After light irradiation, the cells were washed with PBS.
(§6) (5) An MTT solution (5 mg/ml, 0.5% MTT) was added in a dose of 20 μL per well to further incubate the cells for 4 h. If the drug could react with the MTT, centrifuging was carried out first, and then the culture solution was discarded and the cells were carefully washed twice or three times with PBS, and then the culture solution containing MTT was added.
(§7) (6) The culture was terminated and the culture solution in the wells was carefully removed.
(§8) (7) Dimethyl sulfoxide was added in a dose of 150 μL per well, and the plate was then shaken on a shaker at a low speed for 10 min to fully dissolve crystals. The absorbance at OD 490 nm of each well was measured with enzyme-linked immunoassay.
(§9) (8) Zero adjustment wells (medium, MTT, dimethyl sulfoxide) and control wells (cells, dissolving media of the same concentration, culture solution, MTT, dimethyl sulfoxide) were set at the same time.

[4] = test system: Hela cells; assay: as above; assay type: cell-based; settings: Homo sapiens, under light, 450-480 nm laser, 110 mW/cm^2, 900 s
Method: as §1, §2, §3, §4, §5, §6, §7, §8, §9

[5] = test system: SW480 colon cancer cells; assay: as above; assay type: cell-based; settings: Homo sapiens, SW480; under light, 450-480 nm laser, 110 mW/cm^2, 900 s
Method: as §1, §2, §3, §4, §5, §6, §7, §8, §9

Question: For `CC(=O)C(C)=O` [BJMU-204], which inhibition at 60000 µM ([1]; 450-480 nm laser, 15 mW/cm^2, 200 s, read-out: Inhibition rate under light) is on record?
Answer: Its inhibition at 60000 µM is 96%.

Question: What about the inhibition at 60000 µM ([1]; in the dark, read-out: Inhibition rate in the dark) of the same compound?
Answer: The inhibition at 60000 µM was 10.3%.

Question: And the “number of B cells in tumor tissues” value ([2]; 3% (p<0.001) and 0.5% (p<0.01) intratumoral + light vs control)?
Answer: The value was “increases significantly”.

Question: And the “weight changes of tumor tissues” value ([2]; 3% and 0.5% intratumoral + light, both p<0.001 vs control, better at high concentration)?
Answer: The value was “obvious growth inhibition effect”.

Question: And the “size changes of tumor tissues” value ([2]; 3% and 0.5% intratumoral + light, both p<0.001 vs control, more prominent at high concentration)?
Answer: The value was “controlled and decreased”.

Question: And the IC50 [3]?
Answer: The IC50 was 500 ± 30 nM.

Question: What about the IC50 [4] of the same compound?
Answer: The IC50 was 600 ± 20 nM.

Question: What about the IC50 [5] of the same compound?
Answer: The IC50 was 600 ± 50 nM.
